{
  "source": "patent US7632825B2",
  "about": "“Methods of decreasing or preventing pain using spicamycin derivatives” (Bayer Pharmaceuticals Corporation, priority 2000, dated 2009)",
  "key": {"[1]": {"settings": "compared with KRN5500; cited from earlier work"}, "[2]": {"tested_on": "primary afferent-evoked excitatory postsynaptic currents (EPSCs) from lamina II", "assay": "Electrophysiological recording of primary afferent-evoked EPSCs in lumbar spinal cord slices from spared-nerve injury animals", "format": "cell-based", "excerpt": "Electrophysiological recordings were done on 650 μm thick transverse slices of lumbar spinal cord (from spared-nerve injury animals) with attached L4 dorsal root that were perfused with ice cold Krebs' solution ([in mM]: NaCl 117, KCl 3.6, CaCl2 2.5, MgCl2 1.2, NaH2PO4 1.2, NaHCO3 25 and glucose 11) saturated with 95% O2 and 5% CO2. To record primary afferent-evoked excitatory postsynaptic currents (EPSCs) from lamina II, whole cells were patch-clamped and then voltage-clamped at −70 mV. Orthodromicstimulation of L4 dorsal root was performed with a suction electrode attached to a constant current stimulator and graded intensity stimulation sufficient to recruit different afferent populations (Aβ, Aδ, and C-fibers) was used. Resistance of patch pipettes were 5-10 MW when filled with (in mM): Cs2SO4 110, CaCl2 0.5, MgCl2 2, EGTA 5, HEPES 5, TEA 5, ATP-Mg salt 5. Currents were amplified (Axopatch 200A), filtered at 2 kHz, digitized at 5 kHz and analyzed using pCLAMP 6 (Axon Instruments). SAN-Gly was dissolved in ice cold KREBs and bath-applied at two concentrations ([…]). […] In addition, as expected, the same concentration of SAN had no effect."}, "Male Sprague-Dawley rats": {"tested_on": "Male Sprague-Dawley rats", "assay": "Mechanical allodynia (von Frey filaments) in rat segmental spinal nerve injury and chronic constriction nerve injury models, results combined", "format": "in vivo", "settings": "single injection", "experimental": "Male Sprague-Dawley rats (Charles River Laboratories) weighing 150-200 g were used to evaluate the analgesic properties of the SAN-Gly formulation. The animals were housed in groups of three in plastic cages with soft bedding and under a 12 hour light/dark cycle. Food and water were available ad libitum. After one week of acclimatization to the laboratory conditions, all animals were tested to establish a baseline mechanical allodynia.\nSince different animal models of pain can provide different experimental results, SAN-Gly was tested using two rat models. All experiments were performed in a single-blinded fashion, i.e., the experimenter was not aware of which rats received the control saline and which rats received the SAN-Gly formulation.\nOne rat model used was based on an experimentally produced segmental spinal nerve injury (Kim et al., Pain 50:355-363, 1992). One week after the acclimatization to laboratory conditions, baseline measurements were recorded and surgery was performed as described in Kim et al., supra. Rats were anesthetized with halothane in oxygen and placed in a prone position. A midline skin incision at L4-S2 was made, and paraspinal muscles were separated from the spinous processes in the L4-S2 region. […]\nThe rats were allowed to recover from surgery for at least a week. […] Both groups were then monitored for allodynia at various time points after surgery. […]"}, "[3]": {"settings": "100 mM bath-applied, whole-cell patch clamp at -70 mV, observed in three out of five cells"}},
  "data": [
    {"smiles": "NCC(=O)N[C@@H]1[C@@H](O)[C@@H](O)[C@@H](Nc2ncnc3[nH]cnc23)O[C@H]1[C@@H](O)CO", "note": "[SAN-Gly, 4′-N-glycyl spicamycin amino nucleoside]", "values": [
      {"measurement": "cytotoxicity relative to water-insoluble spicamycin derivatives such as KRN5500", "setting": "[1]", "value": "less cytotoxic"},
      {"measurement": "amplitude of EPSCs", "setting": "[2]; [3]", "value": "reduced the amplitude"},
      {"measurement": "latency of EPSCs", "setting": "[2]; [3]", "value": "increased the latency"},
      {"measurement": "effect on EPSCs upon washout of the drug", "setting": "[2]; after 100 mM bath application", "value": "reversed upon washout"},
      {"measurement": "recovery towards baseline pain behavior", "setting": "Male Sprague-Dawley rats; 100 mg/kg body weight, single bolus in the tail vein, both animal models combined (FIG. 1)", "value": 60, "unit": "%"},
      {"measurement": "persistence of increased pain tolerance", "setting": "Male Sprague-Dawley rats; 100 mg/kg, tail vein, days after surgery as printed, both models combined", "value": "at least 7 days"}
    ]}
  ]
}
